According to ChEMBL document CHEMBL1158584, “Mono-, di-, and triaryl substituted tetrahydropyrans as cyclooxygenase-2 and tumor growth inhibitors. Synthesis and biological evaluation” (J Med Chem, 2010):

Test system: HT-29
Assay: cells
Settings: Homo sapiens, HT-29, 48 h, read-out: LC50

| SMILES | CC50 [µM] |
| --- | --- |
| N#CSC[C@@H]1C[C@@](O)(c2ccccc2)C[C@H](c2ccc(F)cc2)O1 (relative stereo) | 8.91 |

Test system: KM12
Assay: cells
Settings: Homo sapiens, KM12, 48 h

| SMILES | GI50 [µM] |
| --- | --- |
| N#CSC[C@@H]1C[C@@](O)(c2ccccc2)C[C@H](c2ccc(F)cc2)O1 (relative stereo) | 1.62 |

Same assay, conditions: Homo sapiens, KM12, 48 h, read-out: LC50

| SMILES | CC50 [µM] |
| --- | --- |
| N#CSC[C@@H]1C[C@@](O)(c2ccccc2)C[C@H](c2ccc(F)cc2)O1 (relative stereo) | 5.75 |

Test system: SW-620
Assay: cells
Settings: Homo sapiens, SW-620, 48 h

| SMILES | GI50 [µM] |
| --- | --- |
| N#CSC[C@@H]1C[C@@](O)(c2ccccc2)C[C@H](c2ccc(F)cc2)O1 (relative stereo) | 2.08 |

Same assay, conditions: Homo sapiens, SW-620, 48 h, read-out: LC50

| SMILES | CC50 [µM] |
| --- | --- |
| N#CSC[C@@H]1C[C@@](O)(c2ccccc2)C[C@H](c2ccc(F)cc2)O1 (relative stereo) | 6.76 |

Test system: SF-539
Assay: cells
Settings: Homo sapiens, SF-539, 48 h

| SMILES | GI50 [µM] |
| --- | --- |
| N#CSC[C@@H]1C[C@@](O)(c2ccccc2)C[C@H](c2ccc(F)cc2)O1 (relative stereo) | 1.94 |

Same assay, conditions: Homo sapiens, SF-539, 48 h, read-out: LC50

| SMILES | CC50 [µM] |
| --- | --- |
| N#CSC[C@@H]1C[C@@](O)(c2ccccc2)C[C@H](c2ccc(F)cc2)O1 (relative stereo) | 6.76 |

Test system: U-251
Assay: cells
Settings: Homo sapiens, U-251, 48 h

| SMILES | GI50 [µM] |
| --- | --- |
| N#CSC[C@@H]1C[C@@](O)(c2ccccc2)C[C@H](c2ccc(F)cc2)O1 (relative stereo) | 1.69 |

Same assay, conditions: Homo sapiens, U-251, 48 h, read-out: LC50

| SMILES | CC50 [µM] |
| --- | --- |
| N#CSC[C@@H]1C[C@@](O)(c2ccccc2)C[C@H](c2ccc(F)cc2)O1 (relative stereo) | 5.75 |

Test system: LOX IMVI
Assay: cells
Settings: Homo sapiens, 48 h

| SMILES | GI50 [µM] |
| --- | --- |
| N#CSC[C@@H]1C[C@@](O)(c2ccccc2)C[C@H](c2ccc(F)cc2)O1 (relative stereo) | 1.69 |

Same assay, conditions: Homo sapiens, 48 h, read-out: LC50

| SMILES | CC50 [µM] |
| --- | --- |
| N#CSC[C@@H]1C[C@@](O)(c2ccccc2)C[C@H](c2ccc(F)cc2)O1 (relative stereo) | 5.26 |

Test system: SK-MEL-2
Assay: cells
Settings: Homo sapiens, SK-MEL-2, 48 h

| SMILES | GI50 [µM] |
| --- | --- |
| N#CSC[C@@H]1C[C@@](O)(c2ccccc2)C[C@H](c2ccc(F)cc2)O1 (relative stereo) | 1.65 |

Same assay, conditions: Homo sapiens, SK-MEL-2, 48 h, read-out: LC50

| SMILES | CC50 [µM] |
| --- | --- |
| N#CSC[C@@H]1C[C@@](O)(c2ccccc2)C[C@H](c2ccc(F)cc2)O1 (relative stereo) | 6.91 |

Test system: SK-MEL-28
Assay: cells
Settings: Homo sapiens, SK-MEL-28, 48 h

| SMILES | GI50 [µM] |
| --- | --- |
| N#CSC[C@@H]1C[C@@](O)(c2ccccc2)C[C@H](c2ccc(F)cc2)O1 (relative stereo) | 4.26 |

Same assay, conditions: Homo sapiens, SK-MEL-28, 48 h, read-out: LC50

| SMILES | CC50 [µM] |
| --- | --- |
| N#CSC[C@@H]1C[C@@](O)(c2ccccc2)C[C@H](c2ccc(F)cc2)O1 (relative stereo) | 38.9 |

Test system: SK-MEL-5
Assay: cells
Settings: Homo sapiens, SK-MEL-5, 48 h

| SMILES | GI50 [µM] |
| --- | --- |
| N#CSC[C@@H]1C[C@@](O)(c2ccccc2)C[C@H](c2ccc(F)cc2)O1 (relative stereo) | 1.73 |

Same assay, conditions: Homo sapiens, SK-MEL-5, 48 h, read-out: LC50

| SMILES | CC50 [µM] |
| --- | --- |
| N#CSC[C@@H]1C[C@@](O)(c2ccccc2)C[C@H](c2ccc(F)cc2)O1 (relative stereo) | 6.16 |

Test system: UACC-257
Assay: cells
Settings: Homo sapiens, UACC-257, 48 h

| SMILES | GI50 [µM] |
| --- | --- |
| N#CSC[C@@H]1C[C@@](O)(c2ccccc2)C[C@H](c2ccc(F)cc2)O1 (relative stereo) | 3.31 |

Same assay, conditions: Homo sapiens, UACC-257, 48 h, read-out: LC50

| SMILES | CC50 [µM] |
| --- | --- |
| N#CSC[C@@H]1C[C@@](O)(c2ccccc2)C[C@H](c2ccc(F)cc2)O1 (relative stereo) | 38 |

Test system: A498
Assay: cells
Settings: Homo sapiens, A498, 48 h

| SMILES | GI50 [µM] |
| --- | --- |
| N#CSC[C@@H]1C[C@@](O)(c2ccccc2)C[C@H](c2ccc(F)cc2)O1 (relative stereo) | 1.9 |

Same assay, conditions: Homo sapiens, A498, 48 h, read-out: LC50

| SMILES | CC50 [µM] |
| --- | --- |
| N#CSC[C@@H]1C[C@@](O)(c2ccccc2)C[C@H](c2ccc(F)cc2)O1 (relative stereo) | 8.91 |

Test system: ACHN
Assay: cells
Settings: Homo sapiens, 48 h

| SMILES | GI50 [µM] |
| --- | --- |
| N#CSC[C@@H]1C[C@@](O)(c2ccccc2)C[C@H](c2ccc(F)cc2)O1 (relative stereo) | 2.08 |

Same assay, conditions: Homo sapiens, 48 h, read-out: LC50

| SMILES | CC50 [µM] |
| --- | --- |
| N#CSC[C@@H]1C[C@@](O)(c2ccccc2)C[C@H](c2ccc(F)cc2)O1 (relative stereo) | 23.9 |

Test system: UO-31
Assay: cells
Settings: Homo sapiens, UO-31, 48 h

| SMILES | GI50 [µM] |
| --- | --- |
| N#CSC[C@@H]1C[C@@](O)(c2ccccc2)C[C@H](c2ccc(F)cc2)O1 (relative stereo) | 1.81 |

Same assay, conditions: Homo sapiens, UO-31, 48 h, read-out: LC50

| SMILES | CC50 [µM] |
| --- | --- |
| N#CSC[C@@H]1C[C@@](O)(c2ccccc2)C[C@H](c2ccc(F)cc2)O1 (relative stereo) | 33.1 |

Test system: PC-3
Assay: cells
Settings: Homo sapiens, PC-3, 48 h

| SMILES | GI50 [µM] |
| --- | --- |
| N#CSC[C@@H]1C[C@@](O)(c2ccccc2)C[C@H](c2ccc(F)cc2)O1 (relative stereo) | 2.51 |

Same assay, conditions: Homo sapiens, PC-3, 48 h, read-out: LC50

| SMILES | CC50 [µM] |
| --- | --- |
| N#CSC[C@@H]1C[C@@](O)(c2ccccc2)C[C@H](c2ccc(F)cc2)O1 (relative stereo) | > 100 |

Test system: DU-145
Assay: cells
Settings: Homo sapiens, DU-145, 48 h

| SMILES | GI50 [µM] |
| --- | --- |
| N#CSC[C@@H]1C[C@@](O)(c2ccccc2)C[C@H](c2ccc(F)cc2)O1 (relative stereo) | 154 |

Same assay, conditions: Homo sapiens, DU-145, 48 h, read-out: LC50

| SMILES | CC50 [µM] |
| --- | --- |
| N#CSC[C@@H]1C[C@@](O)(c2ccccc2)C[C@H](c2ccc(F)cc2)O1 (relative stereo) | 7.58 |

Test system: MCF7
Assay: cells
Settings: Homo sapiens, MCF7, 48 h

| SMILES | GI50 [µM] |
| --- | --- |
| N#CSC[C@@H]1C[C@@](O)(c2ccccc2)C[C@H](c2ccc(F)cc2)O1 (relative stereo) | 2.63 |

Same assay, conditions: Homo sapiens, MCF7, 48 h, read-out: LC50

| SMILES | CC50 [µM] |
| --- | --- |
| N#CSC[C@@H]1C[C@@](O)(c2ccccc2)C[C@H](c2ccc(F)cc2)O1 (relative stereo) | 43.6 |
